From paper PMC5218480 (PLoS ONE, 2017)

Test system: MV-4-11 cells
Assay: Gene expression microarray analysis (Affymetrix PrimeView) and GSEA
Format: cell-based, human
Design: RFU PODN (11730768_x_at) / Fold change /veh PODN (11730768_x_at) / RFU LINC00158 (11744669_a_at) / Fold change /veh LINC00158 (11744669_a_at) / RFU DUSP10 (11751237_a_at) / Fold change /veh DUSP10 (11751237_a_at) / RFU ID3 (11757404_x_at) / Fold change /veh ID3 (11757404_x_at) / RFU PLEKHG5 (11737974_s_at) / Fold change /veh PLEKHG5 (11737974_s_at) / RFU LRRC4B (11730491_at) / Fold change /veh LRRC4B (11730491_at) / RFU GIMAP4 (11747438_a_at) / Fold change /veh GIMAP4 (11747438_a_at) / RFU KRT8 (11758183_x_at) / Fold change /veh KRT8 (11758183_x_at) / RFU CNN1 (11734310_a_at) / Fold change /veh CNN1 (11734310_a_at) / RFU VPS37D (11726825_at) / Fold change /veh VPS37D (11726825_at) / RFU C10orf10 (11716522_x_at) / Fold change /veh C10orf10 (11716522_x_at) / RFU KIR2DL2 /// KIR2DL4 /// KIR2DL5A /// KIR2DL5B /// KIR2DS1 /// KIR2DS2 /// KIR2DS3 /// KIR2DS4 /// KIR3DL3 /// KIR3DL3 /// KIR3DS1 (11738374_at) / Fold change /veh KIR2DL2 /// KIR2DL4 /// KIR2DL5A /// KIR2DL5B /// KIR2DS1 /// KIR2DS2 /// KIR2DS3 /// KIR2DS4 /// KIR3DL3 /// KIR3DL3 /// KIR3DS1 (11738374_at) / RFU C1QL1 (11718748_at) / Fold change /veh C1QL1 (11718748_at) / RFU TMPRSS4 (11747572_a_at) / Fold change /veh TMPRSS4 (11747572_a_at) / RFU HAMP (11756126_x_at) / Fold change /veh HAMP (11756126_x_at) / RFU RNFT2 (11725882_a_at) / Fold change /veh RNFT2 (11725882_a_at) / RFU NR4A2 (11747474_a_at) / Fold change /veh NR4A2 (11747474_a_at) / RFU ABCC12 (11746883_a_at) / Fold change /veh ABCC12 (11746883_a_at) / RFU TMEM136 (11760407_x_at) / Fold change /veh TMEM136 (11760407_x_at) / RFU CLDN22 /// WWC2 (11732394_at) / Fold change /veh CLDN22 /// WWC2 (11732394_at) / RFU HLA-DPB1 (11760878_x_at) / Fold change /veh HLA-DPB1 (11760878_x_at) / RFU SPINT1 (11716480_a_at) / Fold change /veh SPINT1 (11716480_a_at) / RFU GAP43 (11754022_s_at) / Fold change /veh GAP43 (11754022_s_at) / RFU A4GNT (11735810_at) / Fold change /veh A4GNT (11735810_at) / RFU PRB3 (11715151_x_at) / Fold change /veh PRB3 (11715151_x_at) / RFU TUBB4B (11761932_at) / Fold change /veh TUBB4B (11761932_at) / RFU CAPN14 (11732068_a_at) / Fold change /veh CAPN14 (11732068_a_at) / RFU TMCC2 (11721928_a_at) / Fold change /veh TMCC2 (11721928_a_at) / RFU IRGQ (11745062_a_at) / Fold change /veh IRGQ (11745062_a_at) / RFU FAM174B (11720279_a_at) / Fold change /veh FAM174B (11720279_a_at) / RFU TMPRSS4 (11748680_a_at) / Fold change /veh TMPRSS4 (11748680_a_at) / RFU FAM212B (11763350_a_at) / Fold change /veh FAM212B (11763350_a_at) / RFU PLEKHG5 (11743358_a_at) / Fold change /veh PLEKHG5 (11743358_a_at) / RFU ZSCAN30 (11745921_a_at) / Fold change /veh ZSCAN30 (11745921_a_at) / RFU CMKLR1 (11741424_a_at) / Fold change /veh CMKLR1 (11741424_a_at) / RFU LOC101060620 /// MAPK8IP1 (11723275_at) / Fold change /veh LOC101060620 /// MAPK8IP1 (11723275_at) / RFU SPTSSB (11747773_x_at) / Fold change /veh SPTSSB (11747773_x_at) / RFU PRSS12 (11739890_at) / Fold change /veh PRSS12 (11739890_at) / RFU BIN1 (11741810_x_at) / Fold change /veh BIN1 (11741810_x_at) / RFU WNT11 (11732464_a_at) / Fold change /veh WNT11 (11732464_a_at) / RFU C10orf10 (11716521_a_at) / Fold change /veh C10orf10 (11716521_a_at) / RFU C5orf56 (11738089_at) / Fold change /veh C5orf56 (11738089_at) / RFU CYB561 (11721691_x_at) / Fold change /veh CYB561 (11721691_x_at) / RFU ANKRD19P (11752326_a_at) / Fold change /veh ANKRD19P (11752326_a_at) / RFU OR2T12 /// OR2T33 /// OR2T8 (11738714_s_at) / Fold change /veh OR2T12 /// OR2T33 /// OR2T8 (11738714_s_at) / RFU VCAN (11748164_a_at) / Fold change /veh VCAN (11748164_a_at) / RFU JSRP1 (11732532_at) / Fold change /veh JSRP1 (11732532_at) / RFU KRTAP10-11 (11738290_x_at) / Fold change /veh KRTAP10-11 (11738290_x_at) / RFU MYO3A (11730013_a_at) / Fold change /veh MYO3A (11730013_a_at) / RFU EBF3 (11725865_a_at) / Fold change /veh EBF3 (11725865_a_at) / RFU CAMK2N1 (11719241_x_at) / Fold change /veh CAMK2N1 (11719241_x_at) / RFU C5orf56 (11738088_a_at) / Fold change /veh C5orf56 (11738088_a_at) / RFU OLFML3 (11715873_a_at) / Fold change /veh OLFML3 (11715873_a_at) / RFU LOC100653217 /// NTM (11731650_a_at) / Fold change /veh LOC100653217 /// NTM (11731650_a_at) / RFU MAPK11 (11762145_a_at) / Fold change /veh MAPK11 (11762145_a_at) / RFU FIZ1 (11724087_x_at) / Fold change /veh FIZ1 (11724087_x_at) / RFU OASL (11726364_x_at) / Fold change /veh OASL (11726364_x_at) / RFU SOX15 (11748057_x_at) / Fold change /veh SOX15 (11748057_x_at) / RFU CD79A (11719716_a_at) / Fold change /veh CD79A (11719716_a_at) / RFU HIST1H1D (11736915_at) / Fold change /veh HIST1H1D (11736915_at) / RFU CASKIN2 (11723855_a_at) / Fold change /veh CASKIN2 (11723855_a_at) / RFU LOC730098 (11760151_x_at) / Fold change /veh LOC730098 (11760151_x_at) / RFU OR4N2 (11742367_at) / Fold change /veh OR4N2 (11742367_at) / RFU PRRT2 (11749266_a_at) / Fold change /veh PRRT2 (11749266_a_at) / RFU SNX32 (11753110_a_at) / Fold change /veh SNX32 (11753110_a_at) / RFU CDHR5 (11726645_a_at) / Fold change /veh CDHR5 (11726645_a_at) / RFU RCAN1 (11760418_a_at) / Fold change /veh RCAN1 (11760418_a_at) / RFU FAM167A (11723789_a_at) / Fold change /veh FAM167A (11723789_a_at) / RFU FAM26E (11764081_at) / Fold change /veh FAM26E (11764081_at) / RFU ISYNA1 (11749810_s_at) / Fold change /veh ISYNA1 (11749810_s_at) / RFU ACY1 (11761880_at) / Fold change /veh ACY1 (11761880_at) / RFU 11764098_at / Fold change /veh 11764098_at / RFU SAMD14 (11745864_x_at) / Fold change /veh SAMD14 (11745864_x_at) / RFU NPB (11741838_a_at) / Fold change /veh NPB (11741838_a_at) / RFU TMPRSS6 (11731388_a_at) / Fold change /veh TMPRSS6 (11731388_a_at) / RFU KRTAP10-2 (11738614_at) / Fold change /veh KRTAP10-2 (11738614_at) / RFU ARHGAP8 /// PRR5-ARHGAP8 (11727945_x_at) / Fold change /veh ARHGAP8 /// PRR5-ARHGAP8 (11727945_x_at) / RFU KRTAP5-7 /// NADSYN1 (11734609_at) / Fold change /veh KRTAP5-7 /// NADSYN1 (11734609_at) / RFU RASL12 (11751679_a_at) / Fold change /veh RASL12 (11751679_a_at) / RFU CDKN2B (11736163_a_at) / Fold change /veh CDKN2B (11736163_a_at) / RFU PRF1 (11729649_at) / Fold change /veh PRF1 (11729649_at) / RFU, ZNF638 /// ZNF638-IT1 / Fold change vs veh, ZNF638 /// ZNF638-IT1 / RFU, PANK3 / Fold change vs veh, PANK3 / RFU, SH3YL1 / Fold change vs veh, SH3YL1 / RFU, ZEB2 / Fold change vs veh, ZEB2 / RFU, NRIP1 / Fold change vs veh, NRIP1 / RFU, PTTG1IP / Fold change vs veh, PTTG1IP / RFU, CAPN2 / Fold change vs veh, CAPN2 / RFU, MED14 / Fold change vs veh, MED14 / RFU, SNORA58 / Fold change vs veh, SNORA58 / RFU, C1orf63 / Fold change vs veh, C1orf63 / RFU, LRRFIP1 / Fold change vs veh, LRRFIP1 / RFU, NDUFAF7 / Fold change vs veh, NDUFAF7 / RFU, SLC12A2 / Fold change vs veh, SLC12A2 / RFU, IBTK / Fold change vs veh, IBTK / RFU, ESF1 / Fold change vs veh, ESF1 / Fold change vs veh, TMEM50B / RFU, TAOK1 / Fold change vs veh, TAOK1 / RFU, ACBD3 / Fold change vs veh, ACBD3 / RFU, TMA16 / Fold change vs veh, TMA16 / RFU, RWDD3 / Fold change vs veh, RWDD3 / RFU, BCAT1 / Fold change vs veh, BCAT1 / RFU, EDEM3 / Fold change vs veh, EDEM3 / RFU, TMEM33 / Fold change vs veh, TMEM33 / RFU, WDR75 / Fold change vs veh, WDR75 / RFU, AHCTF1 / Fold change vs veh, AHCTF1 / RFU, TFRC / Fold change vs veh, TFRC / RFU, ZDHHC17 / Fold change vs veh, ZDHHC17 / RFU, NOM1 / Fold change vs veh, NOM1 / RFU, ARL8B / Fold change vs veh, ARL8B / RFU, ZBTB11 / Fold change vs veh, ZBTB11 / RFU, TAMM41 / Fold change vs veh, TAMM41 / RFU, KIAA1704 /// LOC100996395 / Fold change vs veh, KIAA1704 /// LOC100996395 / RFU, ING1 / Fold change vs veh, ING1 / RFU, TRMT61B / Fold change vs veh, TRMT61B / RFU, FUBP3 / Fold change vs veh, FUBP3 / RFU, TP53 / Fold change vs veh, TP53 / RFU, TNKS2 / Fold change vs veh, TNKS2 / RFU, ZFP14 / Fold change vs veh, ZFP14 / RFU, ACTR2 / Fold change vs veh, ACTR2 / RFU, PPP3R1 / Fold change vs veh, PPP3R1 / RFU, PIK3R1 / Fold change vs veh, PIK3R1 / RFU, HNRNPA1 / Fold change vs veh, HNRNPA1 / RFU, RNF170 / Fold change vs veh, RNF170 / RFU, ZNF28 / Fold change vs veh, ZNF28 / RFU, RNGTT / Fold change vs veh, RNGTT / RFU, OGT / Fold change vs veh, OGT / RFU, BRD1 / Fold change vs veh, BRD1 / RFU, MARS / Fold change vs veh, MARS / RFU, ZNF655 / Fold change vs veh, ZNF655 / RFU, FAHD1 / Fold change vs veh, FAHD1 / RFU, BDP1 / Fold change vs veh, BDP1 / RFU, LRRCC1 / Fold change vs veh, LRRCC1 / RFU, ARID1A / Fold change vs veh, ARID1A / RFU, ZNF146 / Fold change vs veh, ZNF146 / RFU, ZNF330 / Fold change vs veh, ZNF330 / RFU, GPN3 / Fold change vs veh, GPN3 / RFU, C9orf123 / Fold change vs veh, C9orf123 / RFU, N4BP2L2 / Fold change vs veh, N4BP2L2 / RFU, ARFIP1 / Fold change vs veh, ARFIP1 / RFU, FAM179B / Fold change vs veh, FAM179B / RFU, BCL10 / Fold change vs veh, BCL10 / RFU, UHRF1BP1L / Fold change vs veh, UHRF1BP1L / RFU, BET1 / Fold change vs veh, BET1 / RFU, CNOT2 / Fold change vs veh, CNOT2 / RFU, ZNF268 / Fold change vs veh, ZNF268 / Fold change vs veh, ZNF507 / RFU, DGCR2 / Fold change vs veh, DGCR2 / RFU, WDSUB1 / Fold change vs veh, WDSUB1 / Fold change vs veh, HSP90B1 /// MIR3652 / RFU, ADSS / Fold change vs veh, ADSS / RFU, GK / Fold change vs veh, GK / RFU, ZNF148 / Fold change vs veh, ZNF148 / RFU, TAF9 / Fold change vs veh, TAF9 / RFU, SLC1A5 / Fold change vs veh, SLC1A5 / RFU, SLMO2 / Fold change vs veh, SLMO2 / RFU, ABCC4 / Fold change vs veh, ABCC4 / RFU, LOC101060439 /// RAP1B / Fold change vs veh, LOC101060439 /// RAP1B / RFU, RFX7 / Fold change vs veh, RFX7 / RFU, GTPBP10 / Fold change vs veh, GTPBP10 / RFU, CNEP1R1 / Fold change vs veh, CNEP1R1 / RFU, BIVM-ERCC5 /// ERCC5 / Fold change vs veh, BIVM-ERCC5 /// ERCC5 / RFU, ILF3 / Fold change vs veh, ILF3 / RFU 11762660_at / Fold change /veh 11762660_at / RFU VCAN (11757783_s_at) / Fold change /veh VCAN (11757783_s_at) / RFU DDX43 (11728927_at) / Fold change /veh DDX43 (11728927_at) / RFU KRT8 (11758188_x_at) / Fold change /veh KRT8 (11758188_x_at) / RFU NKD1 (11759106_at) / Fold change /veh NKD1 (11759106_at) / RFU SRD5A1 (11742802_a_at) / Fold change /veh SRD5A1 (11742802_a_at) / RFU TPSAB1 /// TPSB2 (11721975_s_at) / Fold change /veh TPSAB1 /// TPSB2 (11721975_s_at) / RFU GSTM3 (11746129_a_at) / Fold change /veh GSTM3 (11746129_a_at) / RFU IL23R (11737362_x_at) / Fold change /veh IL23R (11737362_x_at) / RFU TMEM51 (11727254_a_at) / Fold change /veh TMEM51 (11727254_a_at) / RFU PIWIL2 (11732686_x_at) / Fold change /veh PIWIL2 (11732686_x_at) / RFU ORM1 (11744905_x_at) / Fold change /veh ORM1 (11744905_x_at) / RFU CCDC152 (11743942_at) / Fold change /veh CCDC152 (11743942_at) / RFU ECM1 (11717891_a_at) / Fold change /veh ECM1 (11717891_a_at) / RFU IL23R (11748794_a_at) / Fold change /veh IL23R (11748794_a_at) / RFU TNFAIP8L3 (11732012_x_at) / Fold change /veh TNFAIP8L3 (11732012_x_at) / RFU MBOAT4 (11741988_at) / Fold change /veh MBOAT4 (11741988_at) / RFU 11764193_at / Fold change /veh 11764193_at / RFU TMEM53 (11763286_at) / Fold change /veh TMEM53 (11763286_at) / RFU MAGEB2 (11727129_at) / Fold change /veh MAGEB2 (11727129_at) / RFU TMEM200A (11744735_a_at) / Fold change /veh TMEM200A (11744735_a_at) / RFU CCDC152 (11751479_a_at) / Fold change /veh CCDC152 (11751479_a_at) / RFU FAM211A (11726209_a_at) / Fold change /veh FAM211A (11726209_a_at) / RFU RGS16 (11746705_a_at) / Fold change /veh RGS16 (11746705_a_at) / RFU VCAN (11755009_s_at) / Fold change /veh VCAN (11755009_s_at) / RFU RHOB (11743442_s_at) / Fold change /veh RHOB (11743442_s_at) / RFU RGS16 (11720943_a_at) / Fold change /veh RGS16 (11720943_a_at) / RFU RGS16 (11720944_at) / Fold change /veh RGS16 (11720944_at) / RFU, VPS4B / Fold change vs veh, VPS4B / RFU, CREB1 / Fold change vs veh, CREB1 / RFU, DNAJC13 / Fold change vs veh, DNAJC13 / RFU, GNAQ / Fold change vs veh, GNAQ / RFU, CDK5R1 / Fold change vs veh, CDK5R1 / RFU, ZRANB3 / Fold change vs veh, ZRANB3 / RFU, CUL4A / Fold change vs veh, CUL4A / RFU, CCNY / Fold change vs veh, CCNY / RFU, UFL1 / Fold change vs veh, UFL1 / RFU, COG3 / Fold change vs veh, COG3 / RFU, DIAPH2 / Fold change vs veh, DIAPH2 / RFU, SKA2 / Fold change vs veh, SKA2 / RFU, AFF3 / Fold change vs veh, AFF3 / RFU, LMF1 / Fold change vs veh, LMF1 / RFU, IPO11 / Fold change vs veh, IPO11 / RFU, DFFB / Fold change vs veh, DFFB / RFU, FOXP1 / Fold change vs veh, FOXP1 / RFU, CARD8 / Fold change vs veh, CARD8 / RFU, STRN3 / Fold change vs veh, STRN3 / RFU, ADK / Fold change vs veh, ADK / RFU, RASSF2 / Fold change vs veh, RASSF2 / RFU, WIPF1 / Fold change vs veh, WIPF1 / RFU, LARP1B / Fold change vs veh, LARP1B / RFU, RASA1 / Fold change vs veh, RASA1 / RFU, RB1 / Fold change vs veh, RB1 / RFU, PPFIA1 / Fold change vs veh, PPFIA1 / RFU, MAT2A / Fold change vs veh, MAT2A / RFU, CCT5 / Fold change vs veh, CCT5 / RFU, WDR92 / Fold change vs veh, WDR92 / RFU, CUX1 / Fold change vs veh, CUX1 / RFU, TTC7A / Fold change vs veh, TTC7A / RFU, TMEM135 / Fold change vs veh, TMEM135 / RFU, DEPTOR / Fold change vs veh, DEPTOR / RFU, CPM / Fold change vs veh, CPM / RFU, DNAJB6 / Fold change vs veh, DNAJB6 / RFU, CACNA2D3 / Fold change vs veh, CACNA2D3 / RFU, DTX4 / Fold change vs veh, DTX4 / RFU, TFCP2 / Fold change vs veh, TFCP2 / RFU, GMCL1 /// GMCL1P1 / Fold change vs veh, GMCL1 /// GMCL1P1 / RFU, AEBP2 / Fold change vs veh, AEBP2 / RFU, SNHG1 /// SNORD22 /// SNORD25 /// SNORD26 /// SNORD27 /// SNORD28 /// SNORD29 /// SNORD31 / Fold change vs veh, SNHG1 /// SNORD22 /// SNORD25 /// SNORD26 /// SNORD27 /// SNORD28 /// SNORD29 /// SNORD31 / Fold change (Aza/veh), C12orf56 (ProbeSet 11735607_a_at) / Fold change (ACY-1035/veh), C12orf56 (ProbeSet 11735607_a_at) / Fold change (Aza/veh), FGFR1OP (ProbeSet 11751329_s_at) / Fold change (ACY-1035/veh), FGFR1OP (ProbeSet 11751329_s_at) / Fold change (Aza/veh), VPS36 (ProbeSet 11739960_a_at) / Fold change (ACY-1035/veh), VPS36 (ProbeSet 11739960_a_at) / RFU SYPL1 (11715823_x_at) / Fold change /veh SYPL1 (11715823_x_at) / RFU IGFBP7 (11715501_s_at) / Fold change /veh IGFBP7 (11715501_s_at) / RFU REEP3 (11722064_at) / Fold change /veh REEP3 (11722064_at) / RFU IGLL1 (11728026_x_at) / Fold change /veh IGLL1 (11728026_x_at): dose or concentration left out as unconfirmed
Conditions: MV-4-11 cells, 48 hours

`Nc1ncn([C@@H]2O[C@H](CO)[C@@H](O)[C@H]2O)c(=O)n1` [azacitidine] was tested, and the “Fold change /veh CDKN2B (11736163_a_at)” value was 1.08.
